Our source for the MIC values is US9650395B2, “Antibacterial compounds and methods for use” (PTC Therapeutics, Inc., priority 2011, dated 2017).

≈ marks a conversion by molar mass, not a printed value. Like-named read-outs stand apart in the source and are kept apart here.

Assay [1] deals with super sensitive Gram-negative Escherichia coli (E. coli) BAS849. Kind of assay: Antibacterial activity, microbroth dilution MIC, E. coli BAS849. It is filed as cell-based. As to conditions: Escherichia coli, read-out: MIC, BAS849. Background: Dilution methods test growth across graded concentrations, often in twofold steps.
Assay [2] relates to control Gram-negative E. coli 25922 strain. Kind of assay: Antibacterial activity, microbroth dilution MIC, E. coli 25922. It is filed as cell-based, Escherichia coli. As to conditions: Escherichia coli; E. coli 25922, microbroth dilution; read-out: MIC, 25922.
The subject of assay [3] is Gram-positive Staphylococcus aureus (S. aureus) 29213. Nature of the assay: Antibacterial activity, microbroth dilution MIC, S. aureus 29213. Particulars: Staphylococcus aureus; S. aureus 29213, microbroth dilution; read-out: MIC, 29213. It is filed as cell-based.
Assay [4] has as its system quinolone resistant E. coli LZ3111. Nature of the assay: Antibacterial activity, MIC, quinolone resistant E. coli LZ3111. It is filed as cell-based, Escherichia coli. As to conditions: Escherichia coli, read-out: MIC, LZ3111. From the text: (§1) The antibacterial activity from a microbroth dilution method may be presented as the minimum inhibitory concentration (MIC in […]). The MIC value is the lowest concentration of a drug which prevents macroscopically visible bacterial growth under test conditions.
Mutations in these regions are known to confer a high level resistance to the quinolone class of antibiotics.

Assay [5] has as its system E. coli ELZ4000 (MDR clinical isolate). Kind of assay: Antibacterial activity, MIC, MDR E. coli ELZ4000. It is filed as cell-based, Escherichia coli. Particulars: Escherichia coli; E. coli ELZ4000, MDR clinical isolate; read-out: MIC ELZ4000.
The subject of assay [6] is E. coli ELZ4251 (MDR clinical isolate). Nature of the assay: Antibacterial activity, MIC, MDR E. coli ELZ4251. It is filed as cell-based, Escherichia coli. As to conditions: Escherichia coli, E. coli ELZ4251, MDR clinical isolate; read-out: MIC ELZ4251.
For assay [7], the system named is Pseudomonas aeruginosa (P. aeruginosa) 27853. Kind of assay: Antibacterial activity, MIC, P. aeruginosa 27853. It is filed as cell-based. As to conditions: Pseudomonas aeruginosa, P. aeruginosa 27853; read-out: MIC 27853.
From the text: as §1
Antibacterial activity of test compounds against the Gram-negative bacterium Pseudomonas aeruginosa (P. aeruginosa) 27853 is shown in Table 5.

Assay [8] concerns Haemophilus influenzae (H. influenzae) 49247. Nature of the assay: Antibacterial activity, MIC, H. influenzae 49247. Particulars: Haemophilus influenzae; H. influenzae 49247; read-out: MIC 49247. It is filed as cell-based. The method, boiled down:
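Antibacterial activity against the Gram-negative organism Haemophilus influenzae strain 49247 was measured by microbroth dilution. The minimum inhibitory concentration (MIC) was taken as the lowest drug concentration that stopped bacterial growth from being visible to the naked eye under the test conditions.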

Assay [9] relates to Moraxella catarrhalis (M. catarrhalis) 25238. Nature of the assay: Antibacterial activity, MIC, M. catarrhalis 25238. It is filed as cell-based. Particulars: Moraxella catarrhalis, M. catarrhalis 25238; read-out: MIC 25238.
For assay [10], the system named is Neisseria meningitidis (N. meningitidis) 13090. Nature of the assay: Antibacterial activity, MIC, N. meningitidis 13090. It is filed as cell-based. Particulars: Neisseria meningitidis; N. meningitidis 13090; read-out: MIC 13090.
Where [11] appears, read: E. coli BAS849, microbroth dilution.

Regarding `CCc1cc(C(=O)O)c(=O)[nH]c1-c1ccc(N2CCC(O)C2)cc1` (stereo not drawn) [Cpd 123, 5-ethyl-6-[4-(3-hydroxypyrrolidin-1-yl)phenyl]-2-oxo-1,2-dihydropyridine-3-carboxylic acid], the MIC in [1] (setting [11]) is below 1 µg/mL; in assay [2] it was below 1 µg/mL; in assay [3], 3.5 to 12.5 µg/mL (≈ 10.7 to 38.1 µM); in assay [4], 12.5 to 150 µg/mL (≈ 38.1 to 457 µM); in assay [5], 12.5 to 150 µg/mL (≈ 38.1 to 457 µM); in assay [6], 12.5 to 150 µg/mL (≈ 38.1 to 457 µM). For the same compound, the MIC was 3.5 to 12.5 µg/mL (≈ 10.7 to 38.1 µM) in [7], below 1 µg/mL in assay [8], below 1 µg/mL in assay [9] and below 1 µg/mL in [10].
Turning to `CCc1cc(C(=O)O)c(=O)[nH]c1-c1ccc(N2CCC(OCc3ccccc3)C2)cc1` (stereo not drawn) [Cpd 128, 6-{4-[3-(benzyloxy)pyrrolidin-1-yl]phenyl}-5-ethyl-2-oxo-1,2-dihydropyridine-3-carboxylic acid], the MIC is below 1 µg/mL in [1] (setting [11]); 12.5 to 150 µg/mL (≈ 29.9 to 358 µM) in assay [2]; 1 to 3.5 µg/mL (≈ 2.39 to 8.36 µM) in assay [3]; 12.5 to 150 µg/mL (≈ 29.9 to 358 µM) in assay [4]; 12.5 to 150 µg/mL (≈ 29.9 to 358 µM) in assay [5]; 12.5 to 150 µg/mL (≈ 29.9 to 358 µM) in assay [6]. Also, the MIC in assay [7] was 12.5 to 150 µg/mL (≈ 29.9 to 358 µM); in [8] it was 1 to 3.5 µg/mL (≈ 2.39 to 8.36 µM); in assay [9] it was below 1 µg/mL; in [10] it was below 1 µg/mL.
For `CCc1cc(C(=O)O)c(=O)[nH]c1-c1ccc(N2CCC(N3CCOCC3)C2)cc1.O=C(O)C(F)(F)F` (stereo not drawn) [Cpd 140, 5-ethyl-6-{4-[3-(morpholin-4-yl)pyrrolidin-1-yl]phenyl}-2-oxo-1,2-dihydropyridine-3-carboxylic acid trifluoroacetate], the MIC was below 1 µg/mL in [1]; 3.5 to 12.5 µg/mL in assay [2]; 12.5 to 150 µg/mL in [3]; 12.5 to 150 µg/mL in assay [4]; 12.5 to 150 µg/mL in assay [5]; 12.5 to 150 µg/mL in assay [6]. Besides, the MIC is 12.5 to 150 µg/mL in assay [7], below 1 µg/mL in assay [8], below 1 µg/mL in assay [9] and below 1 µg/mL in assay [10].
With `CCc1cc(C(=O)O)c(=O)[nH]c1-c1ccc(N2CCC[C@@H]2C(F)(F)F)cc1` [Cpd 141, 5-ethyl-2-oxo-6-{4-[(2R)-2-(trifluoromethyl)pyrrolidin-1-yl]phenyl}-1,2-dihydropyridine-3-carboxylic acid], the MIC is below 1 µg/mL in assay [1] (setting [11]); 12.5 to 150 µg/mL (≈ 32.9 to 394 µM) in assay [2]; 3.5 to 12.5 µg/mL (≈ 9.2 to 32.9 µM) in [3]; 12.5 to 150 µg/mL (≈ 32.9 to 394 µM) in assay [4]; 12.5 to 150 µg/mL (≈ 32.9 to 394 µM) in assay [5]; 12.5 to 150 µg/mL (≈ 32.9 to 394 µM) in assay [6]. Besides, the MIC in [7] is 12.5 to 150 µg/mL (≈ 32.9 to 394 µM); in assay [8], below 1 µg/mL; in [9] it was below 1 µg/mL; in assay [10], below 1 µg/mL.
As to `CCc1cc(C(=O)O)c(=O)[nH]c1-c1ccc(N2CCC(F)(F)C2)cc1` [Cpd 144, 6-[4-(3,3-difluoropyrrolidin-1-yl)phenyl]-5-ethyl-2-oxo-1,2-dihydropyridine-3-carboxylic acid], the MIC was below 1 µg/mL in assay [1] (setting [11]); 1 to 3.5 µg/mL (≈ 2.87 to 10 µM) in [2]; 3.5 to 12.5 µg/mL (≈ 10 to 35.9 µM) in assay [3]; 12.5 to 150 µg/mL (≈ 35.9 to 431 µM) in assay [4]; 12.5 to 150 µg/mL (≈ 35.9 to 431 µM) in assay [5]; 12.5 to 150 µg/mL (≈ 35.9 to 431 µM) in [6]. For the same compound, the MIC in assay [7] was 12.5 to 150 µg/mL (≈ 35.9 to 431 µM); in assay [8], below 1 µg/mL; in assay [9], below 1 µg/mL; in assay [10], below 1 µg/mL.
With `CCc1cc(C(=O)O)c(=O)[nH]c1-c1ccc(N2CCC[C@@H]2COC)cc1` [Cpd 147, 5-ethyl-6-{4-[(2R)-2-(methoxymethyl)pyrrolidin-1-yl]phenyl}-2-oxo-1,2-dihydropyridine-3-carboxylic acid], the MIC was below 1 µg/mL in [1] (setting [11]); 3.5 to 12.5 µg/mL (≈ 9.82 to 35.1 µM) in [2]; 3.5 to 12.5 µg/mL (≈ 9.82 to 35.1 µM) in [3]; 12.5 to 150 µg/mL (≈ 35.1 to 421 µM) in assay [4]; 12.5 to 150 µg/mL (≈ 35.1 to 421 µM) in assay [5]; 12.5 to 150 µg/mL (≈ 35.1 to 421 µM) in [6]. Besides, the MIC in assay [7] was 12.5 to 150 µg/mL (≈ 35.1 to 421 µM); in assay [8] it was below 1 µg/mL; in [9] it was below 1 µg/mL; in [10] it was below 1 µg/mL.
